Entries after “also recorded” stand apart in the source; their conditions may differ.
How the values were obtained:
Design in all cases: species or system rat
[1] = tested on: extracellular acetylcholine levels in the amygdala; experiment: In vivo microdialysis after lateralized intranasal administration (one nostril), amygdala; details: 5 μl of 11.2 mg/mL gel in one nostril, vehicle in the other; anesthetized rats; n=10
Source text: Subjects. A total number of 10 adult male Wistar rats 3-4 months of age and weighting between 400 and 500 grams, at the time of surgery, were obtained from the local animal facility (Tierversuchsanlage, University of Dusseldorf, Germany). They were grouped 4 per cage (Makrolon cage, type IV, 60.0×20.0×38.0 centimeter), and separated into individual cases after the surgery. They were housed under a reversed light-dark cycle (light off from 7 after midnight (AM) to 7 post meridiem (PM)), with free access to food and water. […] After two weeks of adaptation, animals underwent microdialysis as described below. All experiments were carried out in accordance with the European Communities Council Directive (86/609/EEC) on animal welfare, and approved by the German Animal Protection Law Authorities—LANUV Nordrhein-Westfalen.
Surgery. Rats underwent implantation of microdialysis probes into specific brain areas. They were anesthetized with a mixture of ketamine hydrochloride (90.0 milligram/kilogram (mg/kg); Pharmacia & Upjohn) and xylazine hydrochloride (8.0 mg/kg; Bayer) and placed in a stereotaxic frame (David Kopf Instruments). […]
Microdialysis. […] The animal was placed in an acrylic box (45×25×22 centimeter), and the body temperature was monitored and held stable at 36.5±0.5 degrees Celsius by atemperature controller (CMA/150) and a heating pad. […]

[2] = tested on: extracellular acetylcholine levels in the frontal cortex; experiment: In vivo microdialysis after intranasal administration in both nostrils, frontal cortex; details: 5 μl each in both nostrils
Protocol: (§1) Acetylcholine concentration values are presented as % of baseline with six baseline samples taken as 100 (mean+SE). Pregnenolone was administrated intranasally at a volume of 5 μl each in both nostrils, at the 0 minute time point. Time is presented in the x-axis and mean and standard error of acetylcholine concentration (expressed as % of baseline) are presented in the y-axis. Filled black circles represent the vehicle, unfilled white circles represent the 5.6 mg/mL pregnenolone dose and the triangle represents the 11.2 mg/mL pregnenolone dose.
(§2) The semipermeable membrane allows molecules smaller than 6 KDa to pass through. The length of the active membrane is 2 mm for the frontal cortex and amygdala, and 4 mm for the hippocampus.
(§3) Microdialysis. Prior the microdialysis process, the animals were anesthetized with Urethane intraperitoneal injection. (1.25 gram/kilogram, Sigma Aldrich). To allow fluid supply (perfusion liquid) (Ringer's solution 0.2 milliliter every 20 minutes) without physical contact with the animal, a catheter was placed into the intraperitoneal cavity. The animal was placed in an acrylic box (45×25×22 centimeter), and the body temperature was monitored and held stable at 36.5±0.5 degrees Celsius by atemperature controller (CMA/150) and a heating pad. […]

[3] = tested on: extracellular acetylcholine levels in the hippocampus; experiment: In vivo microdialysis after intranasal administration in both nostrils, hippocampus; details: 5 μl each in both nostrils
Protocol: as §1, §2, §3

[4] = tested on: extracellular acetylcholine levels in the amygdala; experiment: In vivo microdialysis after intranasal administration in both nostrils, amygdala; details: 11.2 mg/mL, 5 μl each in both nostrils; n=4
Protocol: as §1, §2, §3

SMILES: CC(=O)[C@H]1CC[C@H]2[C@@H]3CC=C4C[C@@H](O)CC[C@]4(C)[C@H]3CC[C@]12C [pregnenolone]
- extracellular acetylcholine in the amygdala contralateral to the treated nostril [1]: not in the contralateral amygdala
- extracellular acetylcholine in the amygdala ipsilateral to the treated nostril [1]: Higher increase in the ipsilateral amygdala of extracellular level of acetylcholine; also recorded: increases acetylcholine in the amygdala ipsilateral to this nostril
- effect on acetylcholine release in the frontal cortex ([2]; 5.6 mg/mL, n=5): Neither pregnenolone (PREG) at dosage 5.6 mg/mL or 11.2 mg/mL had an effect
- effect on acetylcholine release in the frontal cortex ([2]; 11.2 mg/mL, n=6): Neither pregnenolone (PREG) at dosage 5.6 mg/mL or 11.2 mg/mL had an effect
- effect on acetylcholine release in the hippocampus ([3]; 5.6 mg/mL, n=7): had no effect
- effect on acetylcholine release in the hippocampus ([3]; 11.2 mg/mL, n=5): had an effect on acetylcholine release in the hippocampus, but this effect was not significant
- effect on acetylcholine (ACh) release in the amygdala [4]: induced an increase in acetylcholine release in the amygdala
